Data as given in US20250066480A1, “METHODS TO ENHANCE EFFICACY OF COMBINED TARGETING OF IMMUNE CHECKPOINT AND MAPK PATHWAYS” (THE REGENTS OF THE UNIVERSITY OF CALIFORNIA, priority 2021, published 2025).

Columns and labels:
[1] = tested on: intratumoral T-cell clonotypes (YUMM1.7ER metastases); assay: Bulk tumor TCR-seq of tumor-involved brain and ovarian tissues; type: in vivo, mouse; conditions: on d3; FIG. 6B
Protocol: Total RNA was extracted from frozen tissue stored in RNALater using the QIAGEN All Prep DNA/RNA Mini Kit. RNA quality was measured using Bioanalyzer (Agilent). 710 ng-1,000 ng of RNA from ovary and brain tissues (RNA Integrity Number (RIN) score >7) was used as input to construct libraries with the QIAGEN QIAseq Immune Repertoire RNA Library Kit—T cell Receptor Panel (Qiagen). Briefly, RNA was reverse transcribed using a pool of TCR gene-specific primers against the constant region for the T cell receptor alpha, beta, gamma, and delta genes. The resulting cDNA was then ligated to an oligo containing one side of sample index and unique molecular index (UMI). […] The dual-indexed sample PCR fragment was purified and then quantified for absolute quantification of amplifiable libraries (DNA with adaptors at both ends) in triplicate by real-time qPCR using QIAGEN QIAseq Library Quant Array Kit. […] 12 μM of denatured library pool was run with QIAseq A Read1 Primer on Illumina NextSeq 500 Mid Output Kit using v2.5 chemistry for 300 cycles with an asymmetrical paired end 261/41 bp read for CDR3 region.
As reported previously (10), raw reads were submitted to the QIAGEN GeneGlobe Data Analysis Center (qiagen.com/us/shop/genes-and-pathways/data-analysis-center-overview-page/) to estimate the abundance of reads of unique CDR3 sequence and generate TCR clonotype calls. […]

[2] = tested on: YUMM1.7ER-luc (Braf^V600E melanoma) intracranial and extracranial metastases; assay: Experimental metastasis of syngeneic melanoma (intracardiac injection, BLI, survival); conditions: MEKi monotherapy from d0
Protocol: YUMM1.7ER melanoma cells were engineered to express firefly luciferase (YUMM1.7ER-luc). Before every IC injection, cells were selected for stable luciferase expression by blasticidin treatment, yielding cells (1 million) that emitted luciferase light units of 5e8 to 5e9 in vitro. C57BL/6 (6-8 weeks old, female), after anesthesia with vaporized isoflurane (2.0-2.5%), were injected with 1×10^6 cells/mouse into the left ventricle for intracardiac inoculation. Progression of metastatic tumor burden and treatment effects in mice were monitored in vivo and ex vivo by bioluminescent imaging (BLI). We acquired BLI on both ventral and dorsal sides twice weekly until study endpoints (total ventral or dorsal BLI signal in the range of 1e9-1e10, moribund, or death). Mice were anesthetized with vaporized isoflurane; D-luciferin (150 mg luciferin/kg, Caliper Life Sciences) dosed by intraperitoneal injections; and, 10 minutes after injections, luciferase activities were measured with IVIS Lumina II Imaging System (PerkinElmer). Image analysis was performed with Living Image 4.7.2 Version (PerkinElmer). For ex vivo BLI, mice were euthanized 10 minutes after intraperitoneal injection of D-luciferin by cervical dislocation and organs were excised and imaged ex vivo by the IVIS system. […]

NRAS^MUT melanoma = conditions: patients with NRAS^MUT melanoma; cited from earlier work

Row | SMILES | Fraction of overlapping TCR clones between two distinct regions of tumor-involved brain tissues [1] | Delay of MBM [2] [weeks] | Clinical benefit (median PFS, confirmed overall response, median duration of objective response) in association with prior ICT (NRAS^MUT melanoma)
1 | CC(=O)Nc1cccc(-n2c(=O)n(C3CC3)c(=O)c3c(Nc4ccc(I)cc4F)n(C)c(=O)c(C)c32)c1 [Trametinib, trametinib] | 6.17-9.77% | ~1.5 | 
2 | Cn1cnc2c(F)c(Nc3ccc(Br)cc3F)c(C(=O)NOCCO)cc21 [binimetinib] |  |  | greater clinical benefit
